Read-outs that look alike come from different tables or passages of the source.

The results in this text go back to US12331324B2, “Versatile peroxidases and uses thereof” (Yeda Research and Development Co. Ltd., priority 2021, dated 2025).

For test [1], the system named is Ganoderma sp. 10597_SS1 versatile peroxidase VP8, designed variant 8H, SEQ ID NO: 2 (wild type SEQ ID NO: 5; mutations R4P, M5S, E34T, G59A, T65W, A67Q, V85I …). It is filed as biochemical. Conditions: for Kcat / Kcat/KM / Km: 25° C. On the procedure:
(§1) VPs production and purification. A colony from S. cerevisiae clone containing the VP gene (5H, 8H, 11H, VPL_R4, VPL_2-1B) was picked from an SC drop-out plate, inoculated in 25 mL minimal medium in a 250 flask, and incubated for 48 hours at 30° C. and 225 rpm. An aliquot of cells was removed and used to inoculate 100 mL of minimal medium in a 1 L flask to an OD600 nm of 0.25-0.30, under the same conditions. The cells completed two growth phases (8-10 hours, reaching OD600 nm˜1-1.5), then the expression medium (450 mL) was inoculated with 50 mL of the pre-culture in a 2 L flask (OD600 nm˜0.1). Cells were incubated for a further ˜60 hours at 30° C. and 225 rpm. Thereafter, cells were centrifuged at 6000 g for 15 min at 4° C., and the supernatant was collected and filtered with a 0.2 μm filter bottle.
(§2) Filtrates were subjected to fractional precipitation with ammonium sulfate in two steps: first cut of 50%, followed by centrifugation and elimination of the precipitates, and the second cut of 70%. Buffer A was used to dissolve the pellet, and the dissolved protein solution was shaken overnight at 4° C. for maximal recovery. The dissolved fraction was then centrifuged, filtrated, concentrated, and subjected to overnight dialysis against buffer A. Filtered fractions of the VP proteins after dialysis were uploaded into a HiTrap™ Q HP Column (GE Healthcare Bio-Sciences AB, Uppsala, Sweden) pre-equilibrated with buffer A, through ÄKTA pure protein purification system (GE Healthcare Bio-Sciences AB). Proteins were eluted in a two-step linear gradient from 0 to 1 M NaCl, at a flow rate of 1 ml/min: the first phase of 0-25% over 15 column volumes (75 min) and second phase of 25-100% over 2 column volumes (10 min). The fractions of the peak with the highest VP activity (and absorption at 407 nm) were pooled, concentrated, and dialyzed against 20 mM piperazine buffer pH=5.5 and 150 mM NaCl (buffer B). Protein fractions were then uploaded onto a Superdex 75 Increase 10/300 GL (GE Healthcare Bio-Sciences AB) through the ÄKTA pure system pre-equilibrated with buffer B. The fractions of the peak with the highest VP activity (and absorption at 407 nm) were pooled and dialyzed against buffer A. Pure protein samples were stored at 4° C. Protein concentration was determined using the BCA assay with bovine serum albumin as a standard.
(§3) pH activity profiles. For purified 5H, 8H, 11H, and R4, 20 μL protein samples (diluted in buffer A) were transferred into activity 96 plates (in the case of VA and MnSO4, UV-Star plates; Greiner Bio-One GmbH, Kremsmünster, Austria) and then, 180 μL of the reaction mixture were added to each row in the plate, and absorption at the appropriate wavelength (substrate-dependent) was recorded immediately in a kinetic mode in a plate-reader at 25° C. The reaction mixtures contained a specific substrate in 100 mM citrate-phosphate-borate buffer (pH 2, 3, 3.5, 4, 5, 6, 7, 8) and 0.1 mM H2O2. The activities were recorded in triplicate. The following substrate concentrations and absorption wavelengths were used: ABTS: 2 mM, 418 nm; DMP: 5 mM, 469 nm; RB5: 0.05 mM, 598 nm; VA: 30 mM, 310 nm. For manganese, the reaction mixtures contained 60 mM MnSO4 in 100 mM sodium tartrate buffer (pH 3, 3.5, 4, 4.5, 5) and 0.1 mM H2O2, and the Mn^3+-tartrate complex absorption was read at 238 nm. For each protein and substrate, the activities were normalized to the activity at optimal pH for residual activity calculations. Each activity assay was conducted in triplicate.
(§4) Kinetic parameters. Steady-state kinetics were determined for 5H, 8H, 11H and R4, by measuring the activity (initial rates) in increasing concentrations of the substrate, and the KM and Kcat values were calculated by fitting the results to the Michaelis-Menten model (V0=KcatES/(KM+S)).

In test [2] the target is Pleurotus eryngii versatile peroxidase VPL, variant R4 (VPL-R4, previously evolved for expression; wild type SEQ ID NO: 8) (Pleurotus eryngii, UniProt O94753). It is filed as biochemical. The note with it: 25° C. On the procedure:
as §1, §2, §3, §4

For test [3], the system named is Pleurotus ostreatus versatile peroxidase VP5, designed variant 5H, SEQ ID NO: 1 (wild type SEQ ID NO: 4; mutations A11S, V15T, A17S, A19E, P26D, D38G, A40Q …). On the procedure: as §1
Filtrates were subjected to fractional precipitation with ammonium sulfate in two steps: first cut of 50%, followed by centrifugation and elimination of the precipitates, and the second cut of 70%. […] Protein concentration was determined using the BCA assay with bovine serum albumin as a standard.
pH activity profiles. […] The activities were recorded in triplicate. […] For manganese, the reaction mixtures contained 60 mM MnSO4 in 100 mM sodium tartrate buffer (pH 3, 3.5, 4, 4.5, 5) and 0.1 mM H2O2, and the Mn^3+-tartrate complex absorption was read at 238 nm. […]

Test [4] relates to Pleurotus eryngii versatile peroxidase VPL, variant R4 (VPL-R4, previously evolved for expression; wild type SEQ ID NO: 8). It is filed as biochemical. On the procedure: as §1, §2, §3, §4
The mark [5] stands for this setting: high efficiency site, optimum pH, 0.2 mM H2O2.
The mark [6] stands for this setting: low efficiency site, optimum pH, 0.2 mM H2O2.
Setting [7] is: high efficiency site, optimum pH, 1 mM H2O2.
Setting [8] is: low efficiency site, optimum pH, 1 mM H2O2.
Setting [9] is: H2O2 kinetics with 3 mM ABTS, optimum pH for ABTS.
[10] abbreviates: H2O2 kinetics with 2 mM ABTS, optimum pH for ABTS.
Where [11] appears, read: VA, RB5, optimum pH, 0.2 mM H2O2.

Pleurotus eryngii versatile peroxidase VPL, variant R4 (VPL-R4, previously evolved for expression; wild type SEQ ID NO: 8) (Pleurotus eryngii, UniProt O94753), sequence (O94753 31-361, change not shown): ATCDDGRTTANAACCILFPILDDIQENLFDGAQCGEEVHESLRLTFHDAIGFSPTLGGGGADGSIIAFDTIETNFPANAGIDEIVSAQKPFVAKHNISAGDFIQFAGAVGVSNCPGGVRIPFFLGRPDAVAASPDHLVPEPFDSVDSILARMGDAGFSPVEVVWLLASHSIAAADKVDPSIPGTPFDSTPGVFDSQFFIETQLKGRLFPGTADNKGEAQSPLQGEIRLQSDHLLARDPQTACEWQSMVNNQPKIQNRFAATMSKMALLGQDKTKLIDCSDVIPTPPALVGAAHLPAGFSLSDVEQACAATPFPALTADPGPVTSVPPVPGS

For orientation: Km means the substrate concentration at which the rate is half of its maximum. For the compound `CCn1c(=NN=c2sc3cc(S(=O)(=O)O)ccc3n2CC)sc2cc(S(=O)(=O)O)ccc21` [ABTS, 2,2′-azino-bis (3-ethylbenzothiazoline-6-sulfonic acid)], the Kcat was 7.8 ± 0.3 s⁻¹ in test [1] (setting [5]), 28.2 ± 0.9 s⁻¹ in test [1] (setting [6]), 1.3 ± 0.1 s⁻¹ in test [2] (setting [7]) and 400 ± 21 s⁻¹ in test [2] (setting [8]). Moreover, the Kcat/KM in test [1] (setting [5]) was 1.55e+06 ± 260000 M⁻¹ s⁻¹; in test [1] (setting [6]) it was 35400 ± 4400 M⁻¹ s⁻¹; in test [2] (setting [7]), 3,300 ± 700 sec^−1 mM^−1; in test [2] (setting [8]), 405 ± 49 s⁻¹ mM⁻¹. Further, the Km in test [1] (setting [5]) was found to be 5 ± 0.8 µM; in test [1] (setting [6]), 795 ± 96 µM; in test [2] (setting [7]), 0.39 ± 0.08 µM; in test [2] (setting [8]), 987 ± 107 µM.
On to `COc1cccc(OC)c1O` [DMP, 2,6-dimethoxyphenol], for which, in test [1] (8H relative to the other VPs (5H, 11H, R4)), the “heme-dependent affinity for DMP, fold higher relative to the other VPs” value was “at least 70 fold”. Further, the Kcat is 2.2 ± 0.1 s⁻¹ in test [1] (setting [5]), 3.6 ± 0.1 s⁻¹ in test [1] (setting [6]), 0.74 ± 0.05 s⁻¹ in test [2] (setting [7]) and 132 ± 7 s⁻¹ in test [2] (setting [8]). Besides, the Kcat/KM came to 94600 ± 8200 M⁻¹ s⁻¹ in test [1] (setting [5]), 22100 ± 1600 M⁻¹ s⁻¹ in test [1] (setting [6]), 542 ± 113 s⁻¹ mM⁻¹ in test [2] (setting [7]) and 8.2 ± 1.0 s⁻¹ mM⁻¹ in test [2] (setting [8]). The Km came out at 22.9 ± 1.8 µM in test [1] (setting [5]), 164 ± 12 µM in test [1] (setting [6]), 1.4 ± 0.3 µM in test [2] (setting [7]) and 16100 µM in test [2] (setting [8]).
Regarding `OO` [H2O2, Hydrogen peroxide], the “H2O2 affinity, fold lower than seen in 11H” value in test [3] (5H relative to 11H) amounted to 5 fold; in test [1] (8H relative to 11H), 2 fold; in test [4], 12 fold. For the same compound, the figures for the Kcat in test [1] (setting [9]) and in test [2] (setting [10]) were 12.1 ± 0.6 s⁻¹ and 230 ± 9 s⁻¹, respectively. Also, the Kcat/KM was found to be 135000 ± 21000 M⁻¹ s⁻¹ in test [1] (setting [9]) and 503 ± 61 s⁻¹ mM⁻¹ in test [2] (setting [10]). Besides, the Km in test [1] (setting [9]) was 89.7 ± 12.9 µM; in test [2] (setting [10]), 457 ± 53 µM.
Turning to `Nc1c(N=Nc2ccc(S(=O)(=O)CCOS(=O)(=O)O)cc2)c(S(=O)(=O)O)cc2cc(S(=O)(=O)O)c(N=Nc3ccc(S(=O)(=O)CCOS(=O)(=O)O)cc3)c(O)c12` [RB5, reactive black 5], in test [1] (setting [11]), the Kcat stood at 1.1 ± 0.1 s⁻¹, the Kcat/KM is 65000 ± 7200 M⁻¹ s⁻¹ and the Km came to 17.3 ± 1.7 µM. Further, in test [2] (VA, RB5, optimum pH, 1 mM H2O2), the Kcat was 0.63 ± 0.02 s⁻¹, the Kcat/KM is 487 ± 51 s⁻¹ mM⁻¹ and the Km came to 1.3 ± 0.1 µM.
Turning to `COc1ccc(CO)cc1OC` [VA, veratryl alcohol], the “affinity for VA relative to the next best enzyme” value in test [3] (5H relative to the next best enzyme) is recorded as “more than an order of magnitude higher affinity”. Besides, in test [1] (setting [11]), the Kcat stood at 5.5 ± 0.1 s⁻¹, the Kcat/KM turned out to be 550 ± 20 M⁻¹ s⁻¹ and the Km was 10100 µM. Moreover, in test [2] (VA, RB5, optimum pH, 1 mM H2O2), the Kcat was found to be 5.4 ± 0.4 s⁻¹, the Kcat/KM amounted to 0.7 ± 0.1 s⁻¹ mM⁻¹ and the Km is 7400 µM.
